Laboratory results taken from patent US20110269790A1, “NOVEL THIENOPYRIDINES AS PHARMACOLOGICALLY ACTIVE AGENTS” (priority 2009, published 2011).
Converted amounts (≈) assume the structure as drawn.

Tests used:
[1] = test system: A431 (Skin cancer) cell lines; test: MTT assay, A431; assay type: cell-based; details: MTT, 48 hrs
Description: (§1) A431 (Skin cancer), Colo-205 (Colon cancer), A549 (Lung cancer) cell lines were obtained from National Center for Cell science (NCCS), Pune, India. DMEM (Dulbeccos Modified Eagles Medium), MTT [3-(4,5-dimethylthiazol-2-yl)-2,5-diphenyl tetrazolium bromide], Trypsin, EDTA were purchased from Sigma Chemicals Co (St. Louis, Mo.), Fetal bovine serum were purchased from Arrow labs, 96 well flat bottom tissue culture plates were purchased from Tarson.
(§2) A431, Colo-205, A549 cell lines were grown as adherent cells in DMEM media supplemented with 10% fetal bovine serum, 100 μg/ml penicillin, 200 μg/ml streptomycin, 2 mM L-glutamine, and culture was maintained in a humidified atmosphere with 5% CO2. Stock solution of 10 mg/ml was prepared for test molecules in DMSO. From the stock, various dilutions were made with sterile water to get required concentration. A431, Colo-205, A549 cell lines were seeded at a density of 1×10^4 cells (cell number was determined by Trypan blue exclusion dye method) per each well in 100 μl of DMEM supplemented with 10% FBS. 12 hrs after seeding, above media was replaced with fresh DMEM supplemented with 10% FBS. Then, 10 μl sample from above stock solutions were added to each well in triplicates which gives final concentration of 100, 50, 25, 10 μg/well. The above cells were incubated for 48 hrs at 37° C. with 5% CO2. After 48 hrs incubation the above media was replaced with 100 μl of fresh DMEM with out FBS and to this 10 μl of MTT (5 mg dissolved in 1 ml of PBS) was added and incubated for 3 hrs at 37° C. with 5% CO2. After 3 hrs of incubation, the above media was removed with multi channel pipette, then 200 μl of DMSO was added to each well and incubated at 37° C. for 15 min. Finally, the plate was read at 570 nm using spectrophotometer (Spectra Max, Molecular devices).

[2] = test system: Colo-205 (Colon cancer); test: MTT assay, Colo-205; assay type: cell-based; details: MTT, 48 hrs
Description: as §1, §2

[3] = test system: A549 (Lung cancer); test: MTT assay, A549; assay type: cell-based; details: MTT, 48 hrs
Description: as §1, §2

[4] = test system: mice; test: Adenosine mediated bronchoconstriction and lung inflammation in an allergic mouse model; assay type: in vivo; parameters: Total count: unit not given here; details: BAL fluid cells; 100 mg/kg oral
Description: Thienopyridines were proven as potent cytotoxic and anti-inflammatory agents in the previous experimental results. In cytotoxic MTT assay, activity of these molecules may be due to the involvement of adenosine receptors. Further, to find the bronchodilatory activity of these moieties and to find the involvement of adenosine receptors in their action, non-invasive and invasive adenosine mediated bronchoconstriction and lung inflammation in an allergic mouse model was performed.
Male mice, 6-8 weeks of age, free of specific pathogens were obtained from National Institute of Nutrition. The animals were maintained on a ragweed-free diet. All experimental protocols used in this study were under a protocol approved by animal ethical committee. Sensitization was performed according to the modified procedure described by Fan et al, 2002. Mice were sensitized on days 1 and 6 with i.p. injections of ragweed allergen (200 μg/200 μl of water for injection). Non-sensitized control animals received only water for injection with the same volumes. Ten days after sensitization, the mice were placed in plexiglas chamber and challenged with 0.5% ragweed or with 0.9% saline as a control for twenty minutes both in the morning and evening for three days. Then mice were divided into different groups consisting of six animals each. The groups including a control without sensitization; a sensitized group and a standard group along with groups of the test molecules were separated. Twenty-four hours after last challenge with ragweed, the mice were given an oral dose of test molecules and theophylline (100 mg/kg body weight) as acacia suspension. Two hours after administration of the oral dose, the mice were challenged with adenosine solution (24 mg/ml). The variation in respiration was recorded after anaesthetizing them with pentobarbitone sodium (0.1 ml 200 mg/ml ip) using kymograph. Then, mice were sacrificed and trachea was cannulated to collect the bronchoalveolar lavage fluid. This was performed by pumping 1 ml phosphate buffered saline into lungs through tracheal cannula and collecting the sample. Analysis of BAL fluid was performed to get the cellular differentials. The BAL fluid was centrifugated at 1500 rpm for six minutes at room temparature. After removing the supernatant, BAL cells were resuspended in 1 ml of phosphate buffered saline. Total cells were then counted manually in a hemocytometer chamber. A differential count of at least 300 cells was made according to the standard morphologic criteria and results were mentioned in table.

[5] = target: T1, yeast α-glucosidase (Saccharomyces cerevisiae, UniProt P53341); test: In-vitro yeast α-glucosidase inhibition assay; assay type: biochemical, bakers yeast
T1 construct: α-Glucosidase [(EC 3.2.1.20) Type I: from bakers yeast]
T1 sequence (P53341 whole entry): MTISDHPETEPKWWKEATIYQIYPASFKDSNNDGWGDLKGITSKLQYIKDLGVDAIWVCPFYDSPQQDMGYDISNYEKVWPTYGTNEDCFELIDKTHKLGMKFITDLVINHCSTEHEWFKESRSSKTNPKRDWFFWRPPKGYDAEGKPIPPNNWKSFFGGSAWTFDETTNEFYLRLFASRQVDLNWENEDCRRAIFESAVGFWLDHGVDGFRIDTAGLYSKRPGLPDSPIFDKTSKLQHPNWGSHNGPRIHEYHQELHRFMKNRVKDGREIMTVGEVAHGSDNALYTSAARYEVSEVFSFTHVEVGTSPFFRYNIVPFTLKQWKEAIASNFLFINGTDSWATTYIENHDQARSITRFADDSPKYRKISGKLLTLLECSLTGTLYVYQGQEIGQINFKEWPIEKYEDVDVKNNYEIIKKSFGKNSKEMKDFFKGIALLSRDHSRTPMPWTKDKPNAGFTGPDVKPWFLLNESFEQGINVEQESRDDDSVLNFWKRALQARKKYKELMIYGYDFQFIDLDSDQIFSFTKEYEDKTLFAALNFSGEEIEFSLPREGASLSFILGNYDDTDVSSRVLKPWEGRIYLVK
Text: Chemicals: α-Glucosidase [(EC 3.2.1.20) Type I: from bakers yeast], rat intestinal acetone powder (as a source of crude intestinal α-glucosidase), α-amylase [EC 3.2.1.1) Type VI B: from porcine pancreas], p-nitrophenyl α-D-glucopyranoside, 3,5-dinitro salicylic acid, soluble potato starch and 1-deoxyrojirimycine, were purchased from Sigma Chemical Co., St Louis, Mo., USA. Other chemicals of analytical grade were procured from indigenous manufacturers.
In-vitro a-Glucosidase Inhibition Assay: Yeast and intestinal a-glucosidase inhibitory activities were determined as per reported methods (Babu et al., 2004; Mc Dougall et al., 2005). Rat intestinal acetone powder in normal saline (100% w/v) was sonicated properly and the supernatant was used as a source of crude intestinal a-glucosidase after centrifugation. In brief, 20 μl, of test samples (100 mg/ml DMSO solution) were reconstituted in 100 μl of 100 mM-Phosphate buffer (pH 6.8) in a 96-well microplate and incubated with 50 μl yeast a-glucosidase (0.76 μ/ml in same buffer) or crude intestinal a-glucosidase for 5 min before 50-μl substrate (5 mM, […] prepared in same buffer) was added. Release of p-nitrophenyol was measured at 405 nm spectrophotometrically (Spectra Mas Plus 384, Molecular Device corporation, Sunnyvale, Calif., USA) 5 min after incubation with substrate, individual blank for test samples were prepared to correct background absorbance where the substrate was replaced with 50 μl of buffer. The control sample contained 20 μl DMSO in place of test samples. The percentage of enzyme inhibition was calculated as (A−B/A)×100 where A is represents the absorbance of the control without test samples, and B represents the absorbance in the presence of test samples. […] The IC50 values were calculated by applying logarithmic regression analysis from the mean inhibitory values.

| IC50 ([1]; Homo sapiens, A-431, read-out: A431 cell lines IC50) [µg/mL] | IC50 ([2]; Homo sapiens, COLO 205, read-out: Colo-205 IC50) [µg/mL] | IC50 ([3]; Homo sapiens, A549, read-out: A549 IC50) [µg/mL] | Yeast α-glucosidase enzyme inhibitory activity (in words) [5] | SMILES | A431 cell lines IC50 [1] [µg/mL] | Colo-205 IC50 [2] [µg/mL] | A549 IC50 [3] [µg/mL] | Differential count (%) Eosinophils [4] [%] | Differential count (%) Lymphocytes [4] [%] | Differential count (%) Monocytes [4] [%] | Total count [4] | Yeast α Glucosidase Inhibition (Mean ± S.E) ([5]; single concentration screen) [%] | melting point [°C] |
| --- | --- | --- | --- | --- | --- | --- | --- | --- | --- | --- | --- | --- | --- |
|  |  |  |  | Nc1c2c(nc3sc4c(c13)CCC4)CCCCCC2 [BN-17, 2,3,6,7,8,9,10,11-Octahydro-1H-cycloocta [b]cyclopenta[4,5]thieno[3,2-e]pyridin-12-amine] | 32.35 | 61.65 | 40.7 | 25 | 75 | 9 | 9 | 9.40 ± 4.49 | 256 |
| 53.7 (≈ 208 µM) | 47.8 (≈ 185 µM) | 39.8 (≈ 154 µM) | moderate inhibitory activity | Nc1c2c(nc3sc4c(c13)CCCCC4)CCC2 [BN-18, 1,2,3,6,7,8,9,10-Octahydrocyclohepta[4,5] thieno[2,3-b]cyclopenta [e]pyridin-11-amine] |  |  |  | 20 | 70 | 15 | 18 |  | 255 |
